Measured values as given in US9096591B2, “Tetracyclic compounds” (Medivation Technologies, Inc., priority 2007, dated 2015).
Blank lines part the entries; values can stand above or below the molecule they belong to.

Assays:
[1] = target: T1, human recombinant histamine H1 receptor (Homo sapiens, UniProt P35367); experiment: Histamine H1 radioligand binding ([3H]Pyrilamine); conditions: […] [3H]Pyrilamine, read-out: Histamine Binding H1, percent inhibition of specific binding
T1 construct: expressed in transfected cells; host or cells: CHO cells
Method: To evaluate in radioligand binding assays the activity of compounds of the invention, human recombinant histamine H1 receptor expressed in Chinese hamster ovary (CHO) cells (De Backer M D et al. Biochem. Biophys. Res Comm. 197(3):1601, 1993) in a modified Tris-HCl buffer (50 mM Tris-HCl, pH 7.4, 2 mM MgCl2, 100 mM NaCl, 250 mM Sucrose) were used. […] Non-specific binding was estimated in the presence of 1 μM pyrilamine. Receptor proteins were filtered and washed, the filters were then counted to determine [^3H]pyrilamine specifically bound. […] Biochemical assay results are presented as the percent inhibition of specific binding in Table 5.
To evaluate in radioligand binding assays the activity of compounds of the invention, human recombinant histamine H1 receptor expressed in Chinese hamster ovary (CHO) cells (De Backer, M. D. et al., Biochem. Biophys. Res. Comm. 197(3):1601, 1993) in a modified Tris-HCl buffer (50 mM Tris-HCl, pH 7.4, 2 mM MgCl2, 100 mM NaCl, 250 mM Sucrose) was used. […] Non-specific binding was estimated in the presence of 1 μM pyrilamine. Receptor proteins were filtered and washed, the filters were then counted to determine [^3H]Pyrilamine specifically bound. Compounds were screened at 1 μM, using 1% DMSO as vehicle. Biochemical assay results are presented as the percent inhibition of specific binding in Table 6.

[2] = target: T2, human recombinant histamine H2 receptor (Homo sapiens, UniProt P25021); experiment: Histamine H2 radioligand binding ([125I]Aminopotentidine); conditions: 0.3 μM compound; 0.1 nM [125I]Aminopotentidine; read-out: Histamine Binding H2, percent inhibition of specific binding
T2 construct: expressed in transfected cells; host or cells: CHO-K1 cells
Method: Non-specific binding was estimated in the presence of 3 μM Tiotidine. […] Biochemical assay results are presented as the percent inhibition of specific binding in Table 5.
Non-specific binding was estimated in the presence of 3 μM Tiotidine. […] Compounds were screened at 1 μM, using 1% DMSO as vehicle. Biochemical assay results are presented as the percent inhibition of specific binding in Table 6.

[3] = test system: adrenergic receptors α1D, α2A, α2B; serotonin receptor 5-HT6; dopamine receptor D2L; experiment: Classification of compounds (Type 1-4) from receptor binding and neurite outgrowth
From the text: Compounds of the invention that inhibit binding of a ligand to adrenergic receptors α1D, α2A, α2B and serotonin receptor 5-HT6 by at least about 80% as determined in a suitable assay such as the assays described herein can be classified as Type 1 compounds. […] In one variation, binding of a ligand to serotonin receptor 5-HT7 is at least about 80%. […] Weak inhibition of binding of a ligand to the histamine H1 receptor is permitted as agonists of this receptor have been implicated in stimulating memory as well as weight gain. In one variation, binding to histamine receptor H1 is inhibited by less than about 80%. […] Compounds that inhibit binding of a ligand to the dopamine D2L receptor by at least about 80% as determined in a suitable assay such as the assay described herein can be classified as Type 2 compounds.
In one variation, Type 1 compounds further inhibit binding of a ligand to dopamine receptor D2L by less than about 80% as determined in a suitable assay known in the art such as the assay described herein. […] In one variation, binding of a ligand to serotonin receptor 5-HT7, 5-HT2A and/or 5-HT2C is inhibited by at least about 80% as determined in a suitable assay such as the assays described herein. […] In one variation, binding of a ligand to histamine receptor H1 and/or H2 is inhibited by less than about 80% as determined by a suitable assay known in the art such as the assays described herein.
In one variation, biding to serotonin receptor 5-HT2A is inhibited by at least about 80% as determined in a suitable assay know in the art such as the assay described herein.

[4] = test system: synaptosomes of cortex of rat brain; experiment: Glutamate-induced 45Ca2+ uptake into synaptosomes; format: biochemical, Wistar rats; conditions: for % Ca of control (control-100%), glutamate-induced 45Ca2+ uptake into synaptosomes: rat cortex synaptosomes
Method: Synaptosomes were obtained from cerebral cortex of newborn (9-10 days) Wistar rats using standard Hajos method. The brain was homogenized with 10 volumes of cooled 0.32 M sucrose at 900 rpm. The homogenate was centrifuged at 1500 g for 10 min. and the resulted supernatant was centrifuged at 10000 g for 20 min. The radioactive label was accumulated by suspension of the synaptosomal P2-fraction in the incubation buffer A having the following composition: 132 mM NaCl, 5 mM KCl, 5 mM HEPES, 10 mM glucose, pH 7.4 (protein concentration of approximately 1.5-2 mg/ml). The mixture was further incubated for 5 min with 200 μM glutamate at 37° C. and then ^45Ca^2+ uptake was stopped by filtration through GF/B filters (Whatman, England) followed by three washes with cold buffer B (145 mM KCl, 10 mM Tris, 5.4 mM Trilon B, pH 7.4). The radioactivity probes were analyzed by fluid scintillation beta-analyzer (TriCarb, Perkin Elmer). All tests were performed in three parallel trials in 2-3 independent experiments. The amount of ^45Ca^2+ uptake was estimated by calculating the difference of radioactive label during the stimulation with glutamate and without the stimulation with agonist.
Specific ^45Ca^2+ uptake was estimated using the following equation: K(43/21)=[(Ca4−Ca3)/(Ca2−Ca1)]100%, where
Ca1—^45Ca^2+ uptake for the Control (without glutamate and the compound tested),
[…] glutamate-induced ^45Ca^2+ uptake (glutamate only),
Ca3—^45Ca^2+ uptake in the presence of the compound tested (without glutamate),
Ca4—^45Ca^2+ uptake in the presence of glutamate and the testing compound.
Statistical analysis of the results was performed using Student's t-test.

[5] = test system: mice; experiment: recognition test of new location of a known object (spatial memory); format: in vivo

T1 sequence (P35367 whole entry): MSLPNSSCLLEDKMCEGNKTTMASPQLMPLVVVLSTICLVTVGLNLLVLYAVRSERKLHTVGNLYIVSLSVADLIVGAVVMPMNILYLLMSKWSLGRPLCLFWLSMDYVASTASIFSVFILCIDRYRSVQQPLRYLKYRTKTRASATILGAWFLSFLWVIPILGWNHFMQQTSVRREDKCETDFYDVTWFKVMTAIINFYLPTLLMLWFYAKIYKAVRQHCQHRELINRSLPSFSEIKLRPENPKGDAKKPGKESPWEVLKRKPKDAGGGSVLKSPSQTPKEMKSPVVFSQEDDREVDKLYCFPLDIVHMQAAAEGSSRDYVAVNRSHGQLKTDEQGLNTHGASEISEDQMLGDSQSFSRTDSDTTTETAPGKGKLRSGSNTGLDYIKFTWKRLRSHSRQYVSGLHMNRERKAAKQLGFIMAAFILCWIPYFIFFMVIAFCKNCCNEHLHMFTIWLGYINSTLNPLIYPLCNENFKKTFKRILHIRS
T2 sequence (P25021 whole entry): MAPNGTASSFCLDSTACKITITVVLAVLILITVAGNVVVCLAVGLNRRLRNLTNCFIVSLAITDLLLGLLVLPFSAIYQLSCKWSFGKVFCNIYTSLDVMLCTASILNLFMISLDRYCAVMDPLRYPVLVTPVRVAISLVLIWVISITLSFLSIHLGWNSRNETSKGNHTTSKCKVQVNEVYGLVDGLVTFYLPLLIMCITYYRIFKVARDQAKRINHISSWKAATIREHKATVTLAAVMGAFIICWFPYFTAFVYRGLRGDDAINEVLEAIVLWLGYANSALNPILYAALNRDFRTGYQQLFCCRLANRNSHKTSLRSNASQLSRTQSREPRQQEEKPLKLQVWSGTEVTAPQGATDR

inhibition at 0.03 µM ([1]; 0.03 μM compound): 37% | inhibition at 0.1 µM ([1]; 0.1 μM compound): 57% | inhibition at 0.3 µM [2]: 27% | compound type (classification by receptor binding profile and neurite outgrowth) [3]: Type one
Structure (SMILES): CCN1CCc2c(c3cc(C)ccc3n2CC(O)c2ccc(C)cc2)C1 (racemic) [Compound 29, racemic-2-(2-ethyl-1,2,3,4-tetrahydro-8-methylpyrido[4,3-b]indol-5-yl)-1-p-tolylethanol]

Structure (SMILES): CN1CCc2c(c3cc(F)ccc3n2CCc2noc(-c3ccccc3)n2)C1 [Compound C4-7]
concentration at which glutamate-induced 45Ca2+ uptake into synaptosomes was not affected [4]: 0.1 to 10 µM | glutamate-induced 45Ca2+ uptake into synaptosomes of rat cortex, % of control ([4]; 50-100 μM): ~128% | % Ca of control (control-100%), glutamate-induced 45Ca2+ uptake into synaptosomes ([4]; compound 0.1 μM): 97.2 ± 5.5% | % Ca of control (control-100%), glutamate-induced 45Ca2+ uptake into synaptosomes ([4]; compound 0.5 μM): 87.6 ± 3.9% | % Ca of control (control-100%), glutamate-induced 45Ca2+ uptake into synaptosomes ([4]; compound 1 μM): 105.3 ± 2.8% | % Ca of control (control-100%), glutamate-induced 45Ca2+ uptake into synaptosomes ([4]; compound 5 μM): 109.2 ± 10% | % Ca of control (control-100%), glutamate-induced 45Ca2+ uptake into synaptosomes ([4]; compound 10 μM): 101.6 ± 7.8% | % Ca of control (control-100%), glutamate-induced 45Ca2+ uptake into synaptosomes ([4]; compound 50 μM): 128.3 ± 8.1% | % Ca of control (control-100%), glutamate-induced 45Ca2+ uptake into synaptosomes ([4]; compound 100 μM): 123.6 ± 4.9% | Influence on memory in the test recognition new localization of known object ([5]; Dose of Compound 0.05 mg/kg): − | Influence on memory in the test recognition new localization of known object ([5]; Dose of Compound 0.1 mg/kg): + | Influence on memory in the test recognition new localization of known object ([5]; Dose of Compound 0.5 mg/kg): − | Influence on memory in the test recognition new localization of known object ([5]; Dose of Compound 1.0 mg/kg): − | effect of the dose on exploration time / memory (in words) ([5]; mice, dose 0.05 mg/kg): not effective | time exploring the object in a new location, % of the total time ([5]; mice, dose 0.1 mg/kg): 63.4±10.4% | time exploring the object in the known position, % of the total time ([5]; mice, dose 0.1 mg/kg): 36.6±10.4% | effect of the dose on exploration time / memory (in words) ([5]; mice, dose 0.5 mg/kg): not effective | effect of the dose on exploration time / memory (in words) ([5]; mice, dose 1 mg/kg): not effective | overall effect on memory (in words) ([5]; mice, doses 0.05-1 mg/kg): stimulated memory

Structure (SMILES): CN1CCc2c(c3ccccc3n2CCc2noc(-c3ccccc3)n2)C1 [Compound G6-a, 2-Methyl-5-[2-(5-phenyl-1,2,4-oxadiazol-3-yl)ethyl]-2,3,4,5-tetrahydro-1H-pyrido[4,3-b]indole]
melting point: 111 to 112 °C

melting point: 77.5 to 79 °C
Structure (SMILES): COc1ccc2c(c1)c1c(n2CCc2noc(-c3ccccc3)n2)CCN(C)C1 [Compound G6-b, 8-Methoxy-2-methyl-5-[2-(5-phenyl-1,2,4-oxadiazol-3-yl)ethyl]-2,3,4,5-tetrahydro-1H-pyrido[4,3-b]indole]

Structure (SMILES): Cc1ccc2c(c1)c1c(n2CCc2noc(-c3ccccc3)n2)CCN(C)C1 [Compound G6-c, 2,8-Dimethyl-5-[2-(5-phenyl-1,2,4-oxadiazol-3-yl)ethyl]-2,3,4,5-tetrahydro-1H-pyrido[4,3-b]-indole]
melting point: 120 to 120.5 °C

Structure (SMILES): CN1CCc2c(c3cc(Cl)ccc3n2CCc2noc(-c3ccccc3)n2)C1 [Compound G6-d, 8-Chloro-2-methyl-5-[2-(5-phenyl-1,2,4-oxadiazol-3-yl)ethyl]-2,3,4,5-tetrahydro-1H-pyrido-[4,3-b]indole]
melting point: 122 to 123 °C

melting point: 121.5 to 122.5 °C
Structure (SMILES): CN1CCc2c(c3cc(F)ccc3n2CCc2noc(-c3ccccc3)n2)C1 [Compound G6-f, 8-Fluoro-2-methyl-5-[2-(5-phenyl-1,2,4-oxadiazol-3-yl)ethyl]-2,3,4,5-tetrahydro-1H-pyrido-[4,3-b]indole]

Structure (SMILES): COc1ccc2c(c1)c1c(n2CCc2nc(-c3ccccc3)cs2)CCN(C)C1 [Compound G8-b, 8-Methoxy-2-methyl-5-[2-(4-phenylthiazol-2-yl)ethyl]-2,3,4,5-tetrahydro-1H-pyrido[4,3-b]indole]
melting point: 135 to 136.5 °C

Structure (SMILES): Cc1ccc2c(c1)c1c(n2CCc2nc(-c3ccccc3)cs2)CCN(C)C1 [Compound G8-c, 2,8-Dimethyl-5-[2-(4-phenylthiazol-2-yl)ethyl]-2,3,4,5-tetrahydro-1H-pyrido[4,3-b]indole]
melting point: 148.5 to 149 °C

Structure (SMILES): CN1CCc2c(c3cc(F)ccc3n2CCc2nc(-c3ccccc3)cs2)C1 [Compound G8-f, 8-Fluoro-2-methyl-5-[2-(4-phenylthiazol-2-yl)ethyl]-2,3,4,5-tetrahydro-1H-pyrido[4,3-b]indole]
melting point: 136.5 to 137 °C

melting point: 216 to 219 °C
Structure (SMILES): CN1CCc2c(c3cc(Cl)ccc3n2CCc2n[nH]c(=S)n2C)C1 [Compound G11-b, 5-[2-(8-Chloro-2-methyl-2,3,4,5-tetrahydro-1H-pyrido[4,3-b]indol-5-yl)ethyl]-4-methyl-2,4-dihydro-1,2,4-triazole-3-thione]

melting point: 215 to 218 °C
Structure (SMILES): CN1CCc2c(c3cc(F)ccc3n2CCc2n[nH]c(=S)n2C)C1 [Compound G11-c, 5-[2-(8-Fluoro-2-methyl-2,3,4,5-tetrahydro-1H-pyrido[4,3-b]indol-5-yl)ethyl]-4-methyl-2,4-dihydro-1,2,4-triazole-3-thione]

melting point: 219 to 222 °C
Structure (SMILES): COc1ccc2c(c1)c1c(n2CCc2n[nH]c(=S)n2C)CCN(C)C1 [Compound G11-d, 5-[2-(8-Methoxy-2-methyl-2,3,4,5-tetrahydro-1H-pyrido[4,3-b]indol-5-yl)ethyl]-4-methyl-2,4-dihydro-1,2,4-triazole-3-thione]
